# System: Trichoderma reesei microbial host cells
# Assay: Inactivation of the microbial host cells in fermentation broth (growth on agar plates)
# Format: cell-based
# Settings: hexanoic acid at 0.09%, 0.28%, 0.46%, 0.65% (w/w) in fermentation broth; pH 4.5; 24 hrs constant stirring at room temperature; samples incubated for 4 days at 30 degrees Celsius
# Method: The fatty acid is added to the fermentation broth at various concentrations (0.09% (w/w); 0.28% (w/w); 0.46% (w/w); 0.65% (w/w)).
# pH is adjusted to 4.5 using an aqueous solution of acetic acid (CAS 64-19-7) and/or aqueous sodium hydroxide (CAS 1310-73-2).
# The fermentation broth with the various concentrations of the fatty acid is left at pH 4.5 for 24 hrs with constant stirring at room temperature.
# The fermentation broth is tested after 24 hrs and inactivation of the microbial host cells is successful if there is no growth on agar plates—samples are incubated for 4 days at 30 degrees Celsius.
# Hexanoic acid (100% sol., CAS 142-62-1) was added to the fermentation broth at various concentrations (0.09% (w/w); 0.28% (w/w); 0.46% (w/w); 0.65% (w/w)).
# pH was adjusted to 4.5 using an aqueous solution of acetic acid (CAS 64-19-7) and/or aqueous sodium hydroxide (CAS 1310-73-2).
# The fermentation broth with the various concentrations of hexanoic acid was left at pH 4.5 for 24 hrs with constant stirring at room temperature.
# After 24 hrs the Trichoderma reesei microbial host cells were inactivated (no growth on agar plates—samples were incubated for 4 days at 30 degrees Celsius).
smiles,measurement,value
CCCCCC(=O)O [Hexanoic acid],inactivation of Trichoderma reesei microbial host cells (no growth on agar plates),inactivated

# Reference: US20150203807A1, “INACTIVATION OF A […] USING A FATTY ACID” (NOVOZYMES A/S, priority 2012, published 2015)
